Test results: PMC6119644 (Bioorganic & medicinal chemistry letters, 2018)

Molecular target: GOT1 (Homo sapiens, UniProt P17174)
Test: MDH coupled GOT1 enzymatic assay
Format: biochemical
Details: MDH coupled GOT1 enzymatic assay

Chain of GOT1 (P17174 whole entry): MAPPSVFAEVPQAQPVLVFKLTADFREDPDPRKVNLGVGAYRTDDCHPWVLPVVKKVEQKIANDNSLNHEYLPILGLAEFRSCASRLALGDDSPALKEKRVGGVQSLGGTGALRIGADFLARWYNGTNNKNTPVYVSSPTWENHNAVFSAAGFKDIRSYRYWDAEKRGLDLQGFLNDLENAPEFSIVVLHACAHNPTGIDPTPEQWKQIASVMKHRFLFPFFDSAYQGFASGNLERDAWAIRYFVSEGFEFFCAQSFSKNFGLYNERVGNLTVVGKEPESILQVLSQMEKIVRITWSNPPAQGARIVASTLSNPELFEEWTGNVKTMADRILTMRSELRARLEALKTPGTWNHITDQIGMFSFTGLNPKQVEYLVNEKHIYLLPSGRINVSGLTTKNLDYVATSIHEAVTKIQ

GOT1 inhibition activity (in words)	Structure (SMILES)
lack of observed activity	O=C(Nc1ccccc1)N1CCN(c2cccc3ncccc23)CC1 [Compound 1k]
lack of observed activity	O=C(Nc1ccccc1)N1CCN(c2cccc3[nH]ncc23)CC1 [Compound 1j]
no significant activity	O=C(NCCc1c[nH]c2ccccc12)Nc1ccccc1 [Compound 3a]

Same assay, conditions: relative to 1a; GOT1 inhibition

enhancement in potency	Structure (SMILES)
~ 10 fold	O=C(Nc1ccc(C(F)(F)F)cc1)N1CCN(c2cccc3[nH]ccc23)CC1 [Compound 2d]
~ 10 fold	O=C(Nc1ccc(Cl)cc1)N1CCN(c2cccc3[nH]ccc23)CC1 [Compound 2c]
~ 10 fold	O=C(Nc1cccc(C(F)(F)F)c1)N1CCN(c2cccc3[nH]ccc23)CC1 [Compound 2g]
